We go through 25 compounds from patent publication US8748417B2, “Amino-pyrrolidine-azetidine diamides as monoacylglycerol lipase inhibitors” (Janssen Pharmaceutica, NV, priority 2010, dated 2014).

What is called IC50 is the concentration at which inhibition is half-maximal.

The assay deals with T1, purified wild type MGL (wt-MGLL 6H-11-313) (Homo sapiens, UniProt Q99685).
T1 construct: purified wild type MGL (wt-MGLL 6H-11-313)
T1 sequence (Q99685 1-303): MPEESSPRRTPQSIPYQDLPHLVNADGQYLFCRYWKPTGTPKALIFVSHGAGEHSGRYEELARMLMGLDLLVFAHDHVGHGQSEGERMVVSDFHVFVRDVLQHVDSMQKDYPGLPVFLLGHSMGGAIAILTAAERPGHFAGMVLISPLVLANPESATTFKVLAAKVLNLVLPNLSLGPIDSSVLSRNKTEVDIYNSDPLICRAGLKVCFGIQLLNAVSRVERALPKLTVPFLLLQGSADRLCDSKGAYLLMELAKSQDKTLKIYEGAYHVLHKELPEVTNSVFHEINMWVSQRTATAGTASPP
The assay can be described thus: MGL enzyme activity assay (4MU-B cleavage), wild type MGL. The assay is classed as biochemical. Particulars: wild type MGL 5 nM, 4MU-B 10 μM, 37° C.; read-out: MGL wild type inh IC50. As to the method:
All rate-based assays were performed in black 384-well polypropylene PCR microplates (Abgene) in a total volume of 30 μL. Substrate 4-methylumbelliferyl butyrate (4MU-B; Sigma) and either purified mutant MGL (mut-MGLL 11-313 L179S L186S) or purified wild type MGL (wt-MGLL 6H-11-313) were diluted separately into 20 mM PIPES buffer (pH=7.0), containing 150 mM NaCl and 0.001% Tween 20. Compounds of Formula (I) were pre-dispensed (50 nL) into the assay plate using a Cartesian Hummingbird prior to adding 4MU-B (25 μL of 1.2× solution to a final concentration of 10 μM) followed by enzyme (5 μL of a 6× solution to a final concentration of 5 nM) to initiate the reaction. Final compound concentrations ranged from 17 to 0.0003 μM. The fluorescence change due to 4MU-B cleavage was monitored with excitation and emission wavelengths of 335 and 440 nm, respectively, and a bandwidth of 10 nm (Safire^2, Tecan) at 37° C. for 5 min.
The IC50 values for the following compounds were determined using Microsoft Office Excel from a fit of the equation to the concentration-response plot of the fractional activity as a function of inhibitor concentration.
As for `Cc1c(C(=O)N2CC(N[C@H]3CCN(C(=O)c4cscn4)C3)C2)sc2ccc(-c3cccc(C(F)(F)F)c3)cc12` [Cpd 125, (3S)-N-[1-({3-Methyl-5-[3-(trifluoromethyl)phenyl]-1-benzothiophen-2-yl}carbonyl)azetidin-3-yl]-1-(1,3-thiazol-4-ylcarbonyl)pyrrolidin-3-amine], the IC50 was < 5 nM.
Consider `O=C(c1ccc2nc(-c3ccccc3)sc2c1)N1CC(N[C@H]2CCN(C(=O)c3nccs3)C2)C1` [Cpd 133, (3S)-N-{1-[(2-Phenyl-1,3-benzothiazol-6-yl)carbonyl]azetidin-3-yl}-1-(1,3-thiazol-2-ylcarbonyl)pyrrolidin-3-amine], for which the IC50 worked out at 145 nM.
Then `Cc1nc(-c2ccccc2F)sc1C(=O)N1CC(N[C@H]2CCN(C(=O)c3nccs3)C2)C1` [Cpd 134, (3S)-N-(1-{[2-(2-Fluorophenyl)-4-methyl-1,3-thiazol-5-yl]carbonyl}azetidin-3-yl)-1-(1,3-thiazol-2-ylcarbonyl)pyrrolidin-3-amine], with 2930 nM.
Then `Cc1nc(-c2ccc(F)cc2)sc1C(=O)N1CC(N[C@H]2CCN(C(=O)c3nccs3)C2)C1` [Cpd 135, (3S)-N-(1-{[2-(4-Fluorophenyl)-4-methyl-1,3-thiazol-5-yl]carbonyl}azetidin-3-yl)-1-(1,3-thiazol-2-ylcarbonyl)pyrrolidin-3-amine], with 1130 nM; and `Cc1nc(-c2cccc(Cl)c2)sc1C(=O)N1CC(N[C@H]2CCN(C(=O)c3nccs3)C2)C1` [Cpd 136, (3S)-N-(1-{[2-(3-Chlorophenyl)-4-methyl-1,3-thiazol-5-yl]carbonyl}azetidin-3-yl)-1-(1,3-thiazol-2-ylcarbonyl)pyrrolidin-3-amine], with 165 nM.
On to `Cc1nc(-c2ccc(Cl)cc2)sc1C(=O)N1CC(N[C@H]2CCN(C(=O)c3nccs3)C2)C1` [Cpd 137, (3S)-N-(1-{[2-(4-Chlorophenyl)-4-methyl-1,3-thiazol-5-yl]carbonyl}azetidin-3-yl)-1-(1,3-thiazol-2-ylcarbonyl)pyrrolidin-3-amine], for which the IC50 was 446 nM.
The value for `O=C(c1cscn1)N1CC[C@H](NC2CN(C(=O)c3cc4ccc(C(F)(F)F)cc4s3)C2)C1` [Cpd 139, (3S)-1-(1,3-Thiazol-4-ylcarbonyl)-N-(1-{[6-(trifluoromethyl)-1-benzothiophen-2-yl]carbonyl}azetidin-3-yl)pyrrolidin-3-amine] was 311 nM.
Then `Cc1cc(-c2cccc(C(F)(F)F)c2)ccc1C(=O)N1CC(N[C@H]2CCN(C(=O)c3ccccc3)C2)C1` [Cpd 153, (3S)-N-(1-{[3-Methyl-3′-(trifluoromethyl)biphenyl-4-yl]carbonyl}azetidin-3-yl)-1-(phenylcarbonyl)pyrrolidin-3-amine], with 176 nM; and `O=C(c1ccc2c(ccn2-c2ncccn2)c1)N1CC(N[C@H]2CCN(C(=O)c3ccccc3)C2)C1` [Cpd 155, (3S)-1-(Phenylcarbonyl)-N-{1-[(1-pyrimidin-2-yl-1H-indol-5-yl)carbonyl]azetidin-3-yl}pyrrolidin-3-amine], with 1280 nM.
In the case of `O=C(c1ccc2c(cnn2-c2ccccc2)c1)N1CC(N[C@H]2CCN(C(=O)c3ccccc3)C2)C1` [Cpd 156, (3S)-1-(Phenylcarbonyl)-N-{1-[(1-phenyl-1H-indazol-5-yl)carbonyl]azetidin-3-yl}pyrrolidin-3-amine], the IC50 is 482 nM.
The value for `O=C(c1ccc2nc(-c3ccccc3)sc2c1)N1CC(N[C@H]2CCN(C(=O)c3ccccc3)C2)C1` [Cpd 157, (3S)-N-{1-[(2-Phenyl-1,3-benzothiazol-6-yl)carbonyl]azetidin-3-yl}-1-(phenylcarbonyl)pyrrolidin-3-amine] was 211 nM; that for `Cn1cc(-c2ccccc2)c2ccc(C(=O)N3CC(N[C@H]4CCN(C(=O)c5cscn5)C4)C3)cc21` [Cpd 170, (3S)-N-{1-[(1-Methyl-3-phenyl-1H-indol-6-yl)carbonyl]azetidin-3-yl}-1-(1,3-thiazol-4-ylcarbonyl)pyrrolidin-3-amine] was 350 nM.
The value for `O=C(c1ccccc1)N1CC[C@H](NC2CN(C(=O)c3sc4cc(Cl)ccc4c3C(F)(F)F)C2)C1` [Cpd 182, (3S)-N-(1-{[6-Chloro-3-(trifluoromethyl)-1-benzothiophen-2-yl]carbonyl}azetidin-3-yl)-1-(phenylcarbonyl)pyrrolidin-3-amine] was 217 nM; that for `Cc1ccc2sc(C(=O)N3CC(N[C@H]4CCN(C(=O)c5cscn5)C4)C3)c(C(F)(F)F)c2c1` [Cpd 184, (3S)-N-(1-{[5-Methyl-3-(trifluoromethyl)-1-benzothiophen-2-yl]carbonyl}azetidin-3-yl)-1-(1,3-thiazol-4-ylcarbonyl)pyrrolidin-3-amine] was 205 nM.
Then `Cc1ccc2c(C(F)(F)F)c(C(=O)N3CC(N[C@H]4CCN(C(=O)c5cscn5)C4)C3)sc2c1` [Cpd 185, (3S)-N-(1-{[6-Methyl-3-(trifluoromethyl)-1-benzothiophen-2-yl]carbonyl}azetidin-3-yl)-1-(1,3-thiazol-4-ylcarbonyl)pyrrolidin-3-amine], with 488 nM.
As to `O=C(c1ccc2c(-c3ccc(F)cc3)c[nH]c2c1)N1CC(N[C@H]2CCN(C(=O)c3cscn3)C2)C1` [Cpd 190, (3S)-N-(1-{[3-(4-Fluorophenyl)-1H-indol-6-yl]carbonyl}azetidin-3-yl)-1-(1,3-thiazol-4-ylcarbonyl)pyrrolidin-3-amine], the IC50 was 114 nM.
Turning to `O=C(c1ccc2c(-c3ccc(F)cc3)c[nH]c2c1)N1CC(N[C@H]2CCN(C(=O)c3ccccc3)C2)C1` [Cpd 191, (3S)-N-(1-{[3-(4-Fluorophenyl)-1H-indol-6-yl]carbonyl}azetidin-3-yl)-1-(phenylcarbonyl)pyrrolidin-3-amine], the IC50 turned out to be 297 nM.
Then `Cn1nc(-c2ccccc2)c2cc(C(=O)N3CC(N[C@H]4CCN(C(=O)c5cscn5)C4)C3)ccc21` [Cpd 196, (3S)-N-{1-[(1-Methyl-3-phenyl-1H-indazol-5-yl)carbonyl]azetidin-3-yl}-1-(1,3-thiazol-4-ylcarbonyl)pyrrolidin-3-amine], with 298 nM; and `Cn1nc(-c2ccccc2)c2cc(C(=O)N3CC(N[C@H]4CCN(C(=O)c5ccccc5)C4)C3)ccc21` [Cpd 197, (3S)-N-{1-[(1-Methyl-3-phenyl-1H-indazol-5-yl)carbonyl]azetidin-3-yl}-1-(phenylcarbonyl)pyrrolidin-3-amine], with 199 nM; and `Cn1nc(-c2cccc(F)c2)c2cc(C(=O)N3CC(N[C@H]4CCN(C(=O)c5nccs5)C4)C3)ccc21` [Cpd 199, (3S)-N-(1-{[3-(3-Fluorophenyl)-1-methyl-1H-indazol-5-yl]carbonyl}azetidin-3-yl)-1-(1,3-thiazol-2-ylcarbonyl)pyrrolidin-3-amine], with 107 nM.
The value for `Cn1nc(-c2cccc(F)c2)c2cc(C(=O)N3CC(N[C@H]4CCN(C(=O)c5cscn5)C4)C3)ccc21` [Cpd 200, (3S)-N-(1-{[3-(3-Fluorophenyl)-1-methyl-1H-indazol-5-yl]carbonyl}azetidin-3-yl)-1-(1,3-thiazol-4-ylcarbonyl)pyrrolidin-3-amine] was 843 nM; that for `Cn1nc(-c2cccc(F)c2)c2cc(C(=O)N3CC(N[C@H]4CCN(C(=O)c5ccccc5)C4)C3)ccc21` [Cpd 201, (3S)-N-(1-{[3-(3-Fluorophenyl)-1-methyl-1H-indazol-5-yl]carbonyl}azetidin-3-yl)-1-(phenylcarbonyl)pyrrolidin-3-amine] was 459 nM.
The value for `Cn1nc(-c2ccc(F)cc2)c2cc(C(=O)N3CC(N[C@H]4CCN(C(=O)c5nccs5)C4)C3)ccc21` [Cpd 209, (3S)-N-(1-{[3-(4-Fluorophenyl)-1-methyl-1H-indazol-5-yl]carbonyl}azetidin-3-yl)-1-(1,3-thiazol-2-ylcarbonyl)pyrrolidin-3-amine] was 279 nM; that for `Cn1nc(-c2ccc(F)cc2)c2cc(C(=O)N3CC(N[C@H]4CCN(C(=O)c5cscn5)C4)C3)ccc21` [Cpd 210, (3S)-N-(1-{[3-(4-Fluorophenyl)-1-methyl-1H-indazol-5-yl]carbonyl}azetidin-3-yl)-1-(1,3-thiazol-4-ylcarbonyl)pyrrolidin-3-amine] was 2040 nM; that for `Cn1nc(-c2ccc(F)cc2)c2cc(C(=O)N3CC(N[C@H]4CCN(C(=O)c5ccccc5)C4)C3)ccc21` [Cpd 211, (3S)-N-(1-{[3-(4-Fluorophenyl)-1-methyl-1H-indazol-5-yl]carbonyl}azetidin-3-yl)-1-(phenylcarbonyl)pyrrolidin-3-amine] was 943 nM.
